In US20110124674A1, “5/5-OR 5/6-MEMBERED CONDENSED RING CYCLOALKYLAMINE DERIVATIVE” (priority 2008, published 2011):

Target: T1, human MCH-1R (Homo sapiens, UniProt Q99705)
T1 construct: expressed in transfected cells; host or cells: CHO-K1 (American Type Culture Collection), vector pEF/myc/cyto
Experiment: MCH binding inhibition test ([125I]MCH binding to membranes of MCH-1R expressing CHO-K1 cells)
Conditions: membranes of CHO-K1 cells expressing human MCH-1R; 50 pM [125I]MCH; 25° C., 1 hour; pH 7.4; read-out: IC50 (50% inhibition concentration of test compound to the specific [125I]MCH binding)
From the text: Pharmacological Test Example: MCH Binding Inhibition Test
A human MCH-1R encoding cDNA sequence [FEBS Letters, Vol. 398, 253 (1996); Biochimica et Biophisica Acta, Vol. 1401, 216 (1998)] was cloned to a plasmid vector pEF/myc/cyto (by Invitrogen Corporation). The obtained expression vector was transfected to host cells CHO-K1 (American Type Culture Collection) using Lipofectamine Plus Reagent (by Life Technology Inc.) to provide MCH-1R expression cells.
Membrane samples prepared from the MCH-1R expression cells were incubated with each test compound and 50 pM of [^125I]MCH (by NEN Co.), in an assay buffer (50 mM Tris buffer comprising 10 mM magnesium chloride, 2 mM ethylenediamine tetraacetate, 0.01% bacitracin and 0.2% bovine serum albumin; pH 7.4) at 25° C. for an hour, followed by filtration through a glass filter GF/C (by Wattman Co.). After washing the glass filter with 50 mM Tris buffer (pH 7.4) comprising 10 mM magnesium chloride, 2 mM ethylenediamine tetraacettic acid and 0.04% Tween-20, the radio activity on the glass filter was measured. The non-specific binding was measured in the presence of 1 μM human MCH, and the 50% inhibition concentration (IC50 value) of each test compound to the specific [^125I]MCH binding was determined.

T1 sequence (Q99705 whole entry): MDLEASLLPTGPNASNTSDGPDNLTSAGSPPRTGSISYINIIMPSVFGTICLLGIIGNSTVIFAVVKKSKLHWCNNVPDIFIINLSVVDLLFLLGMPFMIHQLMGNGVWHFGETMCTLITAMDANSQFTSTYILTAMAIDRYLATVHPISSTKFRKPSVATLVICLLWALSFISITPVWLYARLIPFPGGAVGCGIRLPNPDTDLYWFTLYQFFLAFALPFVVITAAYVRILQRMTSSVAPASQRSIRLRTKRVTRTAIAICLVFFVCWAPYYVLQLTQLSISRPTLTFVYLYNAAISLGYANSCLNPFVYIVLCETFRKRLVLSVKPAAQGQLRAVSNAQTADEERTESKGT

IC50	SMILES
22 nM	C#CCn1cc(CN2CCC(NC(=O)c3cc(OC)c(C)c(OC)c3)CC2)c2ccccc21 [Example 2-10, 4-methyl-3,5-bis(methyloxy)-N-(1-{[1-(2-propyn-1-yl)-1H-indol-3-yl]methyl}-4-piperidinyl)benzamide]
13 nM	COc1cc(C(=O)NC2CCN(Cc3cn(C)c4ccccc34)CC2)cc(OC)c1C [Example 2-2, 4-methyl-N-{1-[(1-methyl-1-H-indol-3-yl)methyl]-4-piperidinyl}-3,5-bis(methyloxy)benzamide]
26 nM	COc1cc(C(=O)NC2CCN(Cc3c(C)n(C)c4ccccc34)CC2)cc(OC)c1C [Example 2-5, N-{1-[(1,2-dimethyl-1H-indol-3-yl)methyl]-4-piperidinyl}-4-methyl-3,5-bis(methyloxy)benzamide]
16 nM	COc1cc(C(=O)NC2CCN(Cc3cc4sccc4n3C)CC2)cc(OC)c1C [Example 2-25, 4-methyl-3,5-bis(methyloxy)-N-{1-[(4-methyl-4H-thieno[3,2-b]pyrrol-5-yl)methyl]-4-piperidinyl]benzamide]
6.8 nM	COc1cc(C(=O)NC2CCN(Cc3[nH]c4ccccc4c3C)CC2)cc(OC)c1C [Example 2-18, 4-methyl-N-{1-[(3-methyl-1H-indol-2-yl)methyl]-4-piperidinyl}-3,5-bis(methyloxy)benzamide]
